Measurements published in US20240101570A1 (AMGEN INC., priority 2020, published 2024).
Like-named read-outs stand apart in the source and are kept apart here.

How the values were obtained:
HCT116 MTAP null cells = experiment: HCT116 MTAP null cell proliferation / viability (CellTiter-Glo, 6 days); type: cell-based; settings: for IC50: HCT116 MTAP null cells, 6 days, CellTiter-Glo, read-out: HCT-116 MTAP null IC50; for potency of enantiomer relative to the other enantiomer, measured by IC50 in HCT116 MTAP null cell viability assay: comparison of the two SFC-separated enantiomers
Outline: (§1)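 Viability read by CellTiter-Glo after 6-day compound exposure of MTAP-null and wild-type HCT116 cells grown in RPMI 1640 with 10% FBS. Dosing used 1:3 steps from 1 or 10 μM (8-9 points) or 1:2 steps from 10 or 50 μM (22 points); IC50 taken where fitted curve crosses 50% of control.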

HCT116 WT cells = experiment: HCT116 WT cell proliferation / viability (CellTiter-Glo, 6 days); type: cell-based; settings: HCT116 WT cells, 6 days, CellTiter-Glo, read-out: HCT-116 WT IC50
Outline: as §1

| Compound | IC50 (HCT116 MTAP null cells; HCT116-MTAP null, 144 h) | IC50 (HCT116 WT cells; Homo sapiens, HCT-116, 144 h) | IC50 (HCT116 MTAP null cells) | IC50 (HCT116 WT cells) | potency of enantiomer relative to the other enantiomer, measured by IC50 in HCT116 MTAP null cell viability assay (HCT116 MTAP null cells) |
| --- | --- | --- | --- | --- | --- |
| CO[C@@H]1CCOC[C@H]1N(Cc1ccc(C#N)c(C)n1)C(=O)c1ccc2nc(N)c3c(c2c1)COC3 (single isomer, unassigned) [Example 588] |  |  | 79 nM | 1950 nM |  |
| C[C@@H]1OCc2c1c(N)nc1cnc(C(=O)N(C3CC3)[C@H](C)c3ccc(C(F)(F)F)cn3)cc21 (single isomer, unassigned) [Example 590] | 2230 nM | > 50000 nM |  |  |  |
| Cc1cc2nc(N)c3cnn(C)c3c2cc1C(=O)N(C)[C@@H](C)c1ccc(F)cn1 (single isomer, unassigned) [Example 591] | 563 nM | 32100 nM |  |  |  |
| C[C@@H](c1ccc(F)cn1)N(C)C(=O)c1cc2c(cc1Cl)nc(N)c1cnn(C)c12 (single isomer, unassigned) [Example 594] | 638 nM | 29100 nM |  |  |  |
| CCN(Cc1ccc(C(F)(F)F)cn1)C(=O)c1ccc2nc(N)c3c(c2c1)CO[C@H]3CF (single isomer, unassigned) [Example 596] | 888 nM | 37300 nM |  |  |  |
| C[C@@H](c1ccc(C(F)(F)F)cc1)N(C)C(=O)c1cc2c(cn1)nc(N)c1cnn(C)c12 (single isomer, unassigned) [Example 599] | 536 nM | 27200 nM |  |  |  |
| C[C@@H](c1ccc(C(F)(F)F)cn1)N(C)C(=O)c1ccc2nc(N)c3cnn(C)c3c2c1 (single isomer, unassigned) [Example 601] | 997 nM | 21200 nM |  |  |  |
| COc1ccc(CN(C(=O)c2ccc3nc(N)c4c(c3c2)CCC4)[C@@H](C)c2ncccn2)nn1 (single isomer, unassigned) [Example 647] | 673 nM | 4200 nM |  |  | less potent |
| C[C@H](CF)N(Cc1ccc(C#N)cn1)C(=O)c1cc2c3c(c(N)nc2cn1)COC3 (single isomer, unassigned) [Example 820] | 7070 nM | > 10000 nM |  |  |  |
| CCN(C(=O)c1ccc2nc(N)c3c(c2c1)COC3)[C@@H](C)c1ccc(C(F)(F)F)cn1 (single isomer, unassigned) [Example 821] | 4190 nM | > 50000 nM |  |  |  |
| CCN(C(=O)c1ccc2nc(N)c3c(c2c1)COC3)[C@H](C)c1ccc(C(F)(F)F)cn1 (single isomer, unassigned) [Example 822] | 323 nM | 12000 nM |  |  |  |
| CCN(C(=O)c1cc2c3c(c(N)nc2cn1)COC3)[C@H](C)c1ccc(C(F)(F)F)cn1 (single isomer, unassigned) [Example 823] | 528 nM | 16200 nM |  |  |  |
| CCN(C(=O)c1cc2c3c(c(N)nc2cn1)COC3)[C@@H](C)c1ccc(C(F)(F)F)cn1 (single isomer, unassigned) [Example 824] | 2390 nM | 26300 nM |  |  |  |
| C[C@@H](c1ccc(C(F)(F)F)cn1)N(C(=O)c1cc2c3c(c(N)nc2cn1)COC3)c1cnn(C)c1 (single isomer, unassigned) [Example 826] | 6720 nM | 27100 nM |  |  |  |
| C[C@@H]1OCc2c1c(N)nc1cnc(C(=O)N(Cc3ccc(C(F)(F)F)cn3)c3cnn(C)c3)cc21 (single isomer, unassigned) [Example 827] | 1250 nM | 47200 nM |  |  |  |
| C[C@@H]1OCc2c1c(N)nc1cnc(C(=O)N(Cc3ccc(C(F)(F)F)nn3)C3CCC3)cc21 (single isomer, unassigned) [Example 829] | 7790 nM | > 50000 nM |  |  |  |

Now from value to molecule:

| IC50 (HCT116 MTAP null cells; HCT116-MTAP null, 144 h) | IC50 (HCT116 WT cells; Homo sapiens, HCT-116, 144 h) | IC50 (HCT116 MTAP null cells) | IC50 (HCT116 WT cells) | potency of enantiomer relative to the other enantiomer, measured by IC50 in HCT116 MTAP null cell viability assay (HCT116 MTAP null cells) | Compound |
| --- | --- | --- | --- | --- | --- |
| 12 nM | 150 nM |  |  |  | CO[C@@H]1CCOC[C@H]1N(Cc1ccc(C(F)(F)F)cn1)C(=O)c1ccc2nc(N)c3c(c2c1)COC3 (single isomer, unassigned) [Example 586] |
| 76 nM | 1710 nM |  |  |  | CO[C@H]1CCOC[C@@H]1N(Cc1ccc(C(F)(F)F)cn1)C(=O)c1ccc2nc(N)c3c(c2c1)COC3 (single isomer, unassigned) [Example 587] |
| 29 nM | 815 nM |  |  |  | C[C@H](c1ccc(C(F)(F)F)cn1)N(C(=O)c1cc2c3c(c(N)nc2cn1)[C@@H](C)OC3)C1CC1 (single isomer, unassigned) [Example 589] |
| 25 nM | 2410 nM |  |  |  | Cc1cc2nc(N)c3cnn(C)c3c2cc1C(=O)N(C)[C@H](C)c1ccc(F)cn1 (single isomer, unassigned) [Example 592] |
| 10 nM | 676 nM |  |  |  | C[C@H](c1ncc(C(F)(F)F)cc1F)N(C)C(=O)c1cc2c3c(c(N)nc2cc1F)COC3 (single isomer, unassigned) [Example 595] |
| 200 nM | 15200 nM |  |  |  | C[C@H]1OCc2c1c(N)nc1cnc(C(=O)N(C)Cc3ccc(Br)cn3)cc21 (single isomer, unassigned) [Example 597] |
| 8 nM | 415 nM |  |  |  | C[C@H](c1ccc(C(F)(F)F)cc1)N(C)C(=O)c1cc2c(cn1)nc(N)c1cnn(C)c12 (single isomer, unassigned) [Example 598] |
| 18 nM | 663 nM |  |  |  | C[C@H](c1ccc(C(F)(F)F)cn1)N(C)C(=O)c1ccc2nc(N)c3cnn(C)c3c2c1 (single isomer, unassigned) [Example 600] |
| 6 nM | 209 nM |  |  |  | C[C@H](c1ccc(C(F)(F)F)cn1)N(C)C(=O)c1cc2c(cc1F)nc(N)c1cnn(C)c12 (single isomer, unassigned) [Example 602] |
| 276 nM | 11800 nM |  |  |  | C[C@@H](c1ccc(C(F)(F)F)cn1)N(C)C(=O)c1cc2c(cc1F)nc(N)c1cnn(C)c12 (single isomer, unassigned) [Example 603] |
| 238 nM | 24600 nM |  |  |  | C[C@H](c1ccc(F)cn1)N(C)C(=O)c1ccc2nc(N)c3cnn(C)c3c2c1 (single isomer, unassigned) [Example 604] |
| 14 nM | 793 nM |  |  |  | C[C@H](c1ccc(C(F)(F)F)nn1)N(C)C(=O)c1cc2c(cc1F)nc(N)c1cnn(C)c12 (single isomer, unassigned) [Example 605] |
| 19 nM | 263 nM |  |  | more potent | COc1ccc(CN(C(=O)c2ccc3nc(N)c4c(c3c2)CCC4)[C@H](C)c2ncccn2)nn1 (single isomer, unassigned) [Example 646] |
| 279 nM | 2500 nM |  |  |  | C[C@@H](c1ncccn1)N(Cc1ccc(C(F)(F)F)nn1)C(=O)c1ccc2nc(N)c3c(c2c1)CCC3 (single isomer, unassigned) [Example 648] |
| 14 nM | 181 nM |  |  |  | C[C@H](c1ncccn1)N(Cc1ccc(C(F)(F)F)nn1)C(=O)c1ccc2nc(N)c3c(c2c1)CCC3 (single isomer, unassigned) [Example 649] |
| 53 nM | 811 nM |  |  |  | COC[C@H](C1CC1)N(Cc1ccc(Br)nn1)C(=O)c1ccc2nc(N)c3sccc3c2c1 (single isomer, unassigned) [Example 650] |
| 234 nM | 3520 nM |  |  |  | COC[C@H](C1CC1)N(Cc1ccc(Br)nn1)C(=O)c1cnc2nc(N)c3c(c2c1)COC3 (single isomer, unassigned) [Example 651] |
| 22 nM | 276 nM |  |  |  | C[C@H](c1ccc(C(F)(F)F)cn1)N(C(=O)c1cc2c3c(c(N)nc2cn1)COC3)c1cnn(C)c1 (single isomer, unassigned) [Example 825] |
| 26 nM | 294 nM |  |  |  | C[C@H]1OCc2c1c(N)nc1cnc(C(=O)N(Cc3ccc(C(F)(F)F)cn3)c3cnn(C)c3)cc21 (single isomer, unassigned) [Example 828] |
